According to patent US20230310435A1, “HOST DEFENSE PROTEIN (HDP) MIMETICS FOR PROPHYLAXIS AND/OR TREATMENT OF INFLAMMATORY DISEASES OF THE GASTROINTESTINAL TRACT” (priority 2015, published 2023):
Values joined by “and” are separate entries in the source; they are usually repeats but may differ in a detail not shown here. Equal entries are not always repeated. Structures can show the parent of a compound that is named as a salt.

Columns and labels:
[1] = system: LPS-induced TNF-α release, NR8383 cells; assay: LPS-induced TNF-α production in NR8383 rat macrophages (ELISA); assay type: cell-based
Procedure: Method for FIG. 5. TNF-alpha assays were performed using PMX-30063. […] TNF-α concentrations in the supernatants were determined by ELISA using an immunoassay kit specific for rat TNF-α (R&D Systems, Minneapolis, MN) according to manufacturer's instructions.
Method for FIG. 6. TNF-alpha assays were performed using PMX-60056. NR8383 rat macrophage cells were pretreated with PMX-60056 for 45 minutes followed by treatment with 1 μg/ml LPS from E. coli (Sigma, St. Louis, MO) for 8 hours. TNF-α concentrations in the supernatants were determined by ELISA using an immunoassay kit specific for rat TNF-α (R&D Systems, Minneapolis, MN) according to manufacturer's instructions.
The TNF-α inhibition assay was performed according to the Method described for FIG. 5. […] TNF-α concentrations in the supernatants were determined by ELISA using an immunoassay kit specific for rat TNF-α (R&D Systems).
The TNF-α inhibition assay was performed according to the Method described for FIG. 6. NR8383 rat macrophage cells (CRL-2192. ATCC) were pretreated with PMX-60056 for 45 minutes followed by treatment with 1 μg/ml LPS for 8 hours. TNF-α concentrations in the supernatants were determined by ELISA using an immunoassay kit specific for rat TNF-α (R&D Systems).
(§1) PDE4 and PDE3 inhibition results in subsequent down-regulation of pro-inflammatory cytokines/chemokines and its regulators, and experiments were conducted to confirm such down-regulation by brilacidin in ex vivo cell-based assays. In these assays, cells were exposed to brilacidin 45 minutes before an 8-hour lipopolysaccharide (LPS) stimulation in the presence of brilacidin; cytokine/enzyme concentrations were determined by ELISA using a standard immunoassay kit.

in vivo = assay: in vivo; parameters: species or system male Balb/c mice; details: mouse, 10 mg/kg
Procedure: Method for FIG. 12. […] The small intestine with content of each animal for were harvested and placed per animal per tissue into a tube. The small intestine with content samples were snap frozen in dry ice and then stored at −80° C. until bioanalysis. All the samples were labeled with detailed information such as study number, animal number, matrix, and time points of collection and date of collection. In addition, the extra animals obtained for the study, but not placed on study were used for collection of small intestine with content. The resulting small intestine with content samples were then applied to the development of the bioanalytical method and sample bioanalysis in this study. Bioanalytical analysis was performed on samples by LC-MS/MS.
For analyzing the contents of the small intestine, small intestine samples were homogenized by adding saline (1 g small intestine: 5 mL saline). Small intestine homogenates (50 μL) were transferred to tubes and 250 μL internal standard (IS) working solution (50 ng/mL Carvedilol) was added to each sample. After vortexing for 1 minute and centrifuging for 5 minutes at 15,000 rpm, 100 μL aliquots of supernatant were transferred to glass autosampler vials.
Method for FIG. 13. […] The ratios versus time are shown.
At 1 hour, the concentration in the small intestine peaked at 38,941±4703 ng/gram of tissue (FIG. 12).

DSS-induced colitis = assay: Dextran sulfate sodium (DSS)-induced acute colitis model; assay type: in vivo, male C57BL/6 mice
Procedure: The efficacy of brilacidin administered was investigated in a murine model of chemically-induced acute colitis using dextran sulfate sodium (DSS). This was a different in vivo model of IBD to the testing performed in Examples 16 and 17 (where mucosal injury was induced by using acetic acid). DSS-induced colitis in mice is characterized by weight loss, bloody diarrhea, intestinal ulcerations and infiltrations with granulocytes. In mice, DSS was administered from Day 0 to Day 11, as a 5% (w/v) DSS solution in the drinking water of male C57BL/6 mice (Kim J J, et al., J. Vis. Exp., 2012, 60, 3678), to induce severe murine colitis. On Days 7-11, test compound brilacidin (400 mg/kg) or positive control 5-ASA (50 mg/kg) or water (negative control) were administered as a solution, per rectum. On Days 6, 10 and 11, rectal bleeding was assessed using a Hemoccult® kit and stool consistency was visually assessed; severity of symptoms were scored on a scale of 0 (normal) to 4 (severe). Level of pro-inflammatory cytokines interleukin (IL)-6 and IL-1β in distal colon tissue were determined from excised colons using conventional ELISA methods.

human PDE3A = human PDE3A (Homo sapiens, UniProt Q14432); assay: PDE-Glo phosphodiesterase assay, PDE3; assay type: biochemical; details: 2.75 ng PDE3A, 1 μM cAMP substrate, 15 min pre-incubation; read-out: IC50, inhibition of PDE3
Procedure: Method for FIG. 3. […] The compounds and PDE3A were mixed and pre-incubated at room temperature for 15 minutes. Substrate was added and the reaction was incubated for 7 minutes at room temperature. Data are presented as luminescence units (RLU).
Method for FIG. 4. Phosphodiesterase inhibition assays of PDE3 were performed using PMX-60056. The PDE-Glo phosphodiesterase assay (Promega, Madison, WI, USA Catalog No. V1361) was performed according to manufacturer's instruction using 2.75 ng of PDE3A, 1 μM cAMP substrate and PMX60056. The compounds and PDE3A were mixed and pre-incubated at room temperature for 15 minutes. Substrate was added and the reaction was incubated for 7 minutes at room temperature. Data are presented as luminescence units (RLU).
The compounds and PDE3A were mixed and pre-incubated at room temperature for 15 minutes. Substrate was added and the reaction was incubated. […]
as §1

[2] = system: LPS-induced IL-6 release, NR8383 cells; assay: LPS-induced IL-6 release in NR8383 rat macrophages (ELISA); assay type: cell-based; details: Macrophage
Procedure: Method for FIG. 10. […] After 8 hours, supernatants were collected for IL-6 measurement by ELISA using immunoassay kit (R&D Systems, Minneapolis, MN) according to manufacturer's instructions.
The inhibition of IL-6 induction assay was performed according to the Method described for FIG. 10.
as §1

[3] = by Day 11, brilacidin 400 mg/kg per rectum Days 7-11, p<0.001
[4] = end of study, brilacidin 400 mg/kg or 5-ASA 50 mg/kg per rectum Days 7-11

human PDE3A, sequence (Q14432 whole entry): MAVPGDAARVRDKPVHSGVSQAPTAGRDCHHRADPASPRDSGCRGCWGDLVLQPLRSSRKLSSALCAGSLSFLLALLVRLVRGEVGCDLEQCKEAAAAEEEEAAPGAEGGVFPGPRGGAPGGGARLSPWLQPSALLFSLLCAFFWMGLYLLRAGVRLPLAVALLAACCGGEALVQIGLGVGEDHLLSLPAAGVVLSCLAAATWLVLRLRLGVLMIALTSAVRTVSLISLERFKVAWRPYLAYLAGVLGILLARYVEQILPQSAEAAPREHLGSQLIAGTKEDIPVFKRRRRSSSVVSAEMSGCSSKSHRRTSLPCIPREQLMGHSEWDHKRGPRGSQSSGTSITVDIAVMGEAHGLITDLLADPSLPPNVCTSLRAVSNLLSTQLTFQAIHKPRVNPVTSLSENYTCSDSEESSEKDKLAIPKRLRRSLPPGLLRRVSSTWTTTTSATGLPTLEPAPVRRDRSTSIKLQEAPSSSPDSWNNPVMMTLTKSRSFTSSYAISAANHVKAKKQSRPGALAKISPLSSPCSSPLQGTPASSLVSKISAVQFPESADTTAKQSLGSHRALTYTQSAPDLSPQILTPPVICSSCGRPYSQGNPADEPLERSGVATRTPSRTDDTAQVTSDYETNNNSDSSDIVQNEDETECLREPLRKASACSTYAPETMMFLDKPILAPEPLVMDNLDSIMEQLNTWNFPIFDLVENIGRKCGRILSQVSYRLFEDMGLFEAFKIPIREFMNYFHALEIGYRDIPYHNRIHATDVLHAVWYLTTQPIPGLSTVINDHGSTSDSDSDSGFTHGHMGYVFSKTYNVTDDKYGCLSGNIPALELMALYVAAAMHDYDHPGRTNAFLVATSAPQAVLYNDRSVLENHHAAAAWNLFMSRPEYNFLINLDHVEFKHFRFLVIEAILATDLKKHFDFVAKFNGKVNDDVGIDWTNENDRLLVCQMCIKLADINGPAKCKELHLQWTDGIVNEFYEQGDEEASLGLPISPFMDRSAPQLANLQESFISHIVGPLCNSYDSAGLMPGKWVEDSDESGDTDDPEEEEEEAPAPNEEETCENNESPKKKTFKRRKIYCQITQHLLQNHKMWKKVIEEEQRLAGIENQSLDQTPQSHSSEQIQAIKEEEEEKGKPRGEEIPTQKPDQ

Structure (SMILES): N=C(N)NCCCCC(=O)Nc1cc(C(F)(F)F)cc(NC(=O)c2cc(C(=O)Nc3cc(C(F)(F)F)cc(NC(=O)CCCCNC(=N)N)c3O[C@@H]3CCNC3)ncn2)c1O[C@@H]1CCNC1 [PMX-30063, N^4,N^6-bis(2-((R)-pyrrolidin-3-yloxy)-3-((4-carbamoylbutyl)guanidine)-5-(trifluoromethyl)phenyl)pyrimidine-4,6-dicarboxamide tetrahydrochloride salt]
- effect on LPS-induced TNF-α production (in words) ([1]; NR8383, 45 min pretreatment, 1 μg/ml LPS 8 h): inhibited
- inhibition at 0.5 µM ([1]; Rattus norvegicus, Macrophage, 8 h): ~50%
- IC50 ([1]; Rattus norvegicus, Macrophage, NR8383 cells, ELISA, 45 min pretreatment, 8-hour LPS, read-out: IC50, inhibition of LPS-induced TNF-α release): 442 nM
- total exposure (AUC) in the blood upon oral administration (in vivo; male, Balb/c): less than 0.5%
- Cmax (in vivo; male, Balb/c, po): 38900 ng/g
- Kp (in vivo; male, Balb/c, po): 2240 to 4320
- Tmax (in vivo; male, Balb/c, po): 60 min
- half-life (in vivo; male, Balb/c, po): 47.4 min
- AUC(0-t) (in vivo; po): 86089 ng·h/g
- AUC(0-∞) (in vivo; po): 89525 ng·h/g
- MRT(0-∞) (in vivo; po): 1.52 H
- rectal bleeding score compared to DSS-treated control (in words) (DSS-induced colitis; [3]): significant decrease
- stool consistency compared to DSS-treated control (in words) (DSS-induced colitis; [3]): significantly more firm
- mean reduction in IL-1β in distal colon tissue compared to DSS-treated control group (DSS-induced colitis; [4]): 27%
- mean reduction in IL-6 in distal colon tissue compared to DSS-treated control group (DSS-induced colitis; [4]): 40%
- IC50 (human PDE3A): ~1800 nM and 1800 nM
- IC50 ([2]; NR8383 cells, ELISA, 45 min pretreatment, 8-hour LPS, read-out: IC50, inhibition of LPS-induced IL-6 release): 274 nM
- inhibition at 0.5 µM ([2]; at 0.5 μM, NR8383, LPS 1 μg/ml 8 h, read-out: decrease in IL-6 levels / inhibition of LPS induced IL-6 production): ~50%
